The values that follow come from patent US10137122B2, “Kinase inhibitors and methods of use thereof” (priority 2012, dated 2018).

One data set deals with CDK5/p25 (Homo sapiens (Human), UniProt Q00535).
For data set [1], the system named is TCF/LEF reporter in HEK293-pBARL cells. Briefly: cells. The settings on record: Homo sapiens, HEK293, read-out: TCF/LEF EC50 (μM).
Data set [2] deals with β-catenin nuclear translocation in U2-OS cells. Briefly: β-Catenin nuclear localization assay. The format is cell-based. The settings on record: read-out: beta-Catenin translocation EC50.
Method: β-Catenin Nuclear Localization Assay
U2-OS cells stably expressing two complimentary β-galactosidase fragments (one part on β-Catenin and the other constitutively expressed in the cell nucleus) were maintained in DMEM F12 supplemented with 10% FBS. When β-catenin translocates to the nucleus, the complimentary fragments form a complete β-galactosidase, the amount of which is then quantified by β-galactosidase activity (DiscoveRx). Cells were seeded in a 384-well CulturPlate (Perkin Elmer, Boston, Mass.) with 10,000 per well in 20 μL DMEM F12 containing 10% FCS, 100 U/ml penicillin and 100 μg/mL streptomycin. After overnight incubation at 37° C., cells were stimulated with 100 nL test compound/well and then returned to the incubator for 6 h. Cells were disrupted using 12 μL substrate-containing lysis buffer from the PathHunter Detection Kit in the formulation specified by the supplier (DiscoveRx). Plates were incubated in the dark for 1 h at room temperature before measurement of β-galactosidase activity (luminescence) on an EnVision plate reader (PerkinElmer, Waltham, Mass.).
Data set [3] relates to phospho-Tau (Ser199) in SH-SY5Y cells. The data set is described as follows: Tau phosphorylation assay (phospho-Tau Ser199 ELISA). The format is cell-based, human. The settings on record: Homo sapiens, SH-SY5Y, read-out: p-Tau Inhibition ELISA EC50 SH-SY5Y. (ELISA stands for enzyme-linked immunosorbent assay.)
Method: Tau Phosphorylation and Total Tau Assay
SH-SY5Y cells were maintained in DMEM supplemented with 10% heat-inactivated FBS and 1% penicillin-streptomycin (Invitrogen) unless otherwise stated. ELISA kits for phospho-Tau (Ser199) and total Tau detection were purchased from Invitrogen (KHB0041, and KHB7041 respectively). Briefly, SH-SY5Y cells were seeded at 50,000 cells/200 μL/well in 96 well plates and after overnight incubation, treated with various doses of chemical compounds at 0.2 μL/well. The next day cells were washed with PBS twice before being lysed in 100 μL Lysis buffer/well. 50 μL of cell lysate of each sample was transferred to an ELISA vial coated with the capture antibody, and the mixture was incubated at room temperature for 2 hours, before the supernatant was aspired, and each vial washed four times. 100 μL of detection antibody was then added to each well, incubated for 1 hour, and then washed four times. […] Data were scaled using the positive and neutral controls and fitted for IC50.
A standard protocol using an immunoassay kit to quantify total Tau protein and phospho-Tau (Ser199) protein in SH-SY5Y human neuroblastoma cells was employed. Human Tau (Total) ELISA kit (#KHB0041) and human phosphor-Tau (Ser199) ELISA kit were purchased from Invitrogen (#KHB7041)
50,000 cells were seeded in 200 μl per well in cell culture media (250,000 cells/ml). Cells were incubated overnight @37° C. Cells were induced with appropriate doses of inhibitors and incubated for approximately 24 hrs @37° C. Cell lysates were harvested by washing cells once with cold PBS and adding 100 μl cold lysis buffer and pipette up and down vigorously. Lysate was transferred to 96 well PCR plate and centrifuged at 4,000 rpm for 20 minutes at 4° C.
Well strips were warmed and inserted into the frame. 100μ of standard diluent buffer were loaded into ZERO wells, and 100 ul of each standard concentrations (both total Tau and pTau) were loaded into wells in duplicate. Samples were loaded to each well that would be analyzed for total Tau, 85 μl standard diluent buffer and 15 μl cell lysate were added. To each well that will be analyzed for pTau (Ser199) 50 μl standard diluent buffer+50 μl cell lysate were added. Plates were tapped gently on the side to mix. Certain wells were left empty for chromogen blank. Plates were covered and incubated for 2 hours at room temperature. Wells were aspirated 4 times (400 μl diluted wash buffer, left for 30 seconds, aspirated all wells; alternatively used automated plate washer and programmed in a 30 second hold between each cycle). 100 μl of detection antibody solution were added to each well except chromogen blanks. Anti-total Tau was added to wells being analyzed for total Tau, anti-pTau (Ser199) was added to wells being analyzed for pTau (Ser199), and plates were tapped gently on the side to mix. Plates were covered and incubated for 1 hour at room temperature, then wells were aspirated and washed 4 times as described above. 100 μl of anti-rabbit IgG HRP working solution (prepared ahead) were added to each well except chromogen blanks, and plates were covered and incubated for 30 minutes at room temperature, then wells were aspirated and washed 4 times as described above. 100 μl of stabilized chromogen were added to each well (the liquid turned blue). Plates were incubates for 30 minutes at room temperature in the dark, then 100 μl of stop solution were added to each well, and plates were tapped gently on the side to mix. Absorbance of each well was read at 450 nm (within 2 hours of adding stop solution).
For data set [4] the following is noted: mouse plasma, 5 hours.
The subject of a further data set is HL-60 and U937 cells. Briefly: GE-HTS 32-gene myeloid differentiation signature. Format: cell-based. The settings on record: three days treatment. As to the method:
HL-60 and U937 cells were treated for three days with compound 70 or vehicle. A 32-gene differentiation signature was quantified by the LMA/bead-based approach and a Weighted Summed Score (Differentiation Score) calculated for all genes was determined for each condition. Error bars denote the mean±SD of 8 replicates and statistical significance of the differences between these differentiation scores was derived using a one-way ANOVA with a Bonferroni correction.
Compound 70 Induces a Gene Expression Signature in AML Cell Lines Consistent with Myeloid Differentiation […]

The nature of data set [5]: Pharmacokinetics and brain distribution in mice. The format is in vivo. The settings on record: single i.p. dose 30 mg/kg, male C57BL/6 mice.
For data set [6], the system named is amphetamine-induced hyperactivity. The data set is described as follows: Amphetamine-induced hyperactivity (AIH) in vivo. The settings on record: mice, vs vehicle.
The test system of the next data set is AML cell lines. Briefly: AML cell morphology, May-Grunwald Giemsa staining. Format: cell-based. The settings on record: three days after treatment, vs vehicle. As to the method: Compound 70 Induces Morphological Changes in AML Cell Lines Consistent with Myeloid Differentiation
On day three post-chemical treatment, cytospin preparations were performed. Changes in cellular morphology were evaluated by May-Grunwald Giemsa staining (Sigma Aldrich). Images were acquired by light microscopy at 400× magnification.

The target in the next data set is GSK3α (Homo sapiens (Human), UniProt P49840).
In a further data set the test system is panel of 311 kinases. Briefly: Single point kinome-wide profile (Carna Biosciences). The settings on record: panel of 311 kinases. The format is biochemical.
In data set [7] the test system is human iPSC-NPCs with TCF/LEF-luciferase reporter. Briefly: Neurogenesis assay. The format is cell-based. The settings on record: 24-h treatment. The source says: See, e.g., Zhao et al., J Biomol Screen. 2012 October; 17(9):1252-63.
Data set [8] has as its system TCF/LEF reporter in HEK293-pBARL cells. The settings on record: read-out: TCF/LEF EC50.
In data set [9] the target is T1, GSK3β (Homo sapiens (Human), UniProt P49841).
Method: GSK3β Microfluidic Mobility-Shift Assay
(§1) Reactions were terminated by the addition of 10 mM EDTA. Substrate and product were separated electrophoretically and fluorescence intensity of the substrate and product was determined by Labchip EZ Reader II (Caliper Life Sciences, MA). The kinase activity was measured as percent conversion. The reactions were performed in duplicate for each sample. […] The results were analyzed by Genedata Assay Analyzer. The percent inhibition was plotted against the compound concentration and the IC50 value was determined from the logistic dose-response curve fitting.
Data set [10] concerns the target T1, GSK3β. This is another data set of the same source.
Method: Human GSK3β as a GST fusion expressed in baculoviral system was purchased from BPS Bioscience (San Diego, Calif.). […] Reactions were incubated at room temperature for 60 minutes. 2.5 μL/well of ADP-Glo (Promega, V9103) was added with BioRAPTR, and incubated at room temperature for 40 minutes followed by addition of 5 μL/well of ADP-Glo detection reagent (Promega, V9103) with Combi nL (Thermo, Waltham, Mass.) and incubation at room temperature for 30 minutes. The plates were read on a ViewLux (PerkinElmer, Waltham, Mass.) for luminescence. Data were scaled using the positive and neutral controls and fitted for IC50 as described below.
ADP Glo Assay Protocol (10 μM ATP) in 384-Well Format
100 nL/well compounds were pinned. […] Incubated at room temperature for 60 minutes. Added 20 μL/well of ADP-glo (Promega, V9103) with Combi, and incubated at room temperature for 40 minutes. Added 40 μL/well of ADP-glo (Promega, V9103) with Combi, incubated at room temperature for 30 minutes. Read on Envision for luminescence.
For data set [11] the following is noted: mouse, microsomes, 1 h.
The subject of a further data set is GSK3. The settings on record: read-out: GSK3 IC50 of lithium; cited from earlier work.

“Also recorded” adds a separate entry of the source. Like-named read-outs stand apart in the source and are kept apart here.

A word on the IC50: it is the concentration needed to halve the response being measured.

Chain of GSK3α (P49840 whole entry): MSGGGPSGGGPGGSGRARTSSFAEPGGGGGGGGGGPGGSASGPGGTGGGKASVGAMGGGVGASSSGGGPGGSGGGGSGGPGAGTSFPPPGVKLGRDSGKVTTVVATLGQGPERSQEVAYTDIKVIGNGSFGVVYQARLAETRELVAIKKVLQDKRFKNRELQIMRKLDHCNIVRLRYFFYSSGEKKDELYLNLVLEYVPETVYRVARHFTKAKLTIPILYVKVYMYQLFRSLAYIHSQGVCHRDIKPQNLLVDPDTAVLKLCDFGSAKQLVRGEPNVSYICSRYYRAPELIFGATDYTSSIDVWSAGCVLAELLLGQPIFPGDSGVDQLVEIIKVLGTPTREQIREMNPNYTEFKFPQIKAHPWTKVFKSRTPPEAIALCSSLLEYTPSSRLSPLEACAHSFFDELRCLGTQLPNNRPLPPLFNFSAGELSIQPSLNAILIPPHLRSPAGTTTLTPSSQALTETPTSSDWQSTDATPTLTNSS
Chain of CDK5/p25 (Q00535 whole entry, species assumed): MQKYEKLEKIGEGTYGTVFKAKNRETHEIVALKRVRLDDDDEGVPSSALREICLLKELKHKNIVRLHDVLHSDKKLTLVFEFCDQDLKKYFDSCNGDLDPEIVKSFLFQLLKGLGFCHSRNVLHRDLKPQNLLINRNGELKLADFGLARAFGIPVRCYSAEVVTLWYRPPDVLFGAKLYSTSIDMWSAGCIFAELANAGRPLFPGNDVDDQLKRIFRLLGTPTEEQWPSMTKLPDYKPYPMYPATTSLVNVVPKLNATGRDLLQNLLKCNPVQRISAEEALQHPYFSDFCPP
Chain of CDK5/p25 (Q15078 99-307 partner, species assumed): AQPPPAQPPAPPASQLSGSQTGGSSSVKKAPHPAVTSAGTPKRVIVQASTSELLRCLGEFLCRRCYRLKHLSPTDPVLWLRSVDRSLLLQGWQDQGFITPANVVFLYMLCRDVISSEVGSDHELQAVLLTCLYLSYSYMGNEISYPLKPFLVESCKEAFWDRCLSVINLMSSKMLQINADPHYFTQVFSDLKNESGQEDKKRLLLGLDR
T1 sequence (P49841 whole entry): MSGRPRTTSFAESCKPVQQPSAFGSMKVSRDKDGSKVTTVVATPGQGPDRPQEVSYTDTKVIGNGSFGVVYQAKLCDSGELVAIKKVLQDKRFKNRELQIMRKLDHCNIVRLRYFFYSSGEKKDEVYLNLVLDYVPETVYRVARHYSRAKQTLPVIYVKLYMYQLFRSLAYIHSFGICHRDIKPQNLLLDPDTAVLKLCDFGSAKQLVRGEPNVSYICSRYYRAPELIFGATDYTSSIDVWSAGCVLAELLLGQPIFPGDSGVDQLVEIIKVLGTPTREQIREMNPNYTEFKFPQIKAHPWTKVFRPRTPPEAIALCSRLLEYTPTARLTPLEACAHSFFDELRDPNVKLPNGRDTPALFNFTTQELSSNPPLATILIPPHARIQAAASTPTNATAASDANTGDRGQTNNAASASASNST
Method for CDK5/p25: Biochemical characterization of these synthesized compounds were assayed against GSK3β and CDK5/p25, with CDK5/p25 serving as a counter target of GSK3β selectivity. […] The effects of these compounds on survival of SH-SY5Y pathophysiology cells were also monitored.
Method for GSK3α: GSK3β Microfluidic Mobility-Shift Assay
as §1
Method for panel of 311 kinases: Briefly, a selection of compounds was screened against a panel of kinases at a single concentration of 10 μM. […] This was completed utilizing one of two assays depending on the kinase being examined.
Test compounds were dissolved in and diluted with dimethylsulfoxide (DMSO) to generate a 100× sample solution. These were then diluted to 4× sample solutions in assay buffer to make the final test compound solutions. Reference compounds for assay control were prepared similarly.
A solution of IMAP binding reagent (IMAP Screening Express kit; Molecular Devices) (60 μL) was added to each well and incubated for 30 minutes.
A solution of termination buffer (QuickScout Screening assist MSA; Carna Biosciences) (60 μL) was added to each well. The entire reaction mixture was then applied to a LabChip3000 system (Caliper Life Science) and the product and substrate peptide peaks were separated and quantified.

Turning to `Cc1[nH]nc2c1C(c1ccccc1C(F)(F)F)C1=C(CC(C)(C)CC1=O)N2` (racemic) [Compound 27, 3,7,7-trimethyl-4-(2-(trifluoromethyl)phenyl)-6,7,8,9-tetrahydro-2H-pyrazolo[3,4-b]quinolin-5(4H)-one], the “ADP Glo Assay GSK3β vs CDK5 fold selectivity” value at CDK5/p25 is reported as 34X. Moreover, the EC50 in [1] was determined as 9.59 µM; in [2] (Homo sapiens, U2OS) it was 12 µM; in [3], 4.24 µM.
For `CC1(C)CC(=O)C2=C(C1)Nc1n[nH]c(C(F)(F)F)c1C2(C)c1ccccc1` (racemic) [Compound 68, 4,7,7-trimethyl-4-phenyl-3-(trifluoromethyl)-6,7,8,9-tetrahydro-2H-pyrazolo[3,4-b]quinolin-5(4H)-one], the “ADP Glo Assay GSK3β vs CDK5 fold selectivity” value at CDK5/p25 is listed as 244X. The EC50 in [1] came out at 7.77 µM; in data set [2] (Homo sapiens, U2OS), 10.8 µM.
For the molecule `Cc1[nH]nc2c1C(C)(c1cccc(C#N)c1)C1=C(CC(C)(C)CC1=O)N2` (racemic) [Compound 95, 3-(1,6,6,9-tetramethyl-8-oxo-4,5,6,7,8,9-hexahydro-2H-pyrazolo[3,4-b]quinolin-9-yl)benzonitrile], the EC50 in data set [3] was determined as 6.35 µM. In addition, the “Plasma stability % remaining” value in [4] came to 99.0%.
`CC1(C)CC(=O)C2=C(C1)Nc1n[nH]cc1[C@]2(C)c1ccccc1` (racemic) [Compound 108]: in data set [4], the “Plasma stability % remaining” value was determined as 96.6%.
Regarding `CC1(C)CC(=O)C2=C(C1)Nc1n[nH]c(C3CC3)c1C2(C)c1ccccc1` (racemic) [Compound 113], the EC50 in [3] is 4.8 µM. The “Plasma stability % remaining” value in data set [4] came to 90.5%.
Consider `CC1(C)CC(=O)C2=C(C1)Nc1n[nH]c(C(F)(F)F)c1C2(C)c1ccccc1` (single isomer, unassigned) [Compound 70, 4,7,7-trimethyl-4-phenyl-3-(trifluoromethyl)-6,7,8,9-tetrahydro-2H-pyrazolo[3,4-b]quinolin-5(4H)-one], for which, in the data set on HL-60 and U937 cells, the “AML differentiation by GE-HTS signature” value is “induced a gene expression signature in AML cell lines consistent with myeloid differentiation; also recorded: induces AML (acute myeloid leukemia) differentiation by GE-HTS signature”. The “pharmacokinetic profile (systemic exposure and brain distribution) compared to CHIR99021” value in [5] was “improved pharmacokinetic profile”. Besides, the EC50 worked out at 1.86 µM in [1] and 0.819 µM in [3]. Also, the “effect on amphetamine-induced hyperactivity, intraperitoneal injection” value in [6] (systemic i.p.) is on record as “attenuate amphetamine-induced hyperactivity”. The “morphological evidence of AML differentiation” value in the data set with AML cell lines is on record as “induces morphological evidence of AML (acute myeloid leukemia) differentiation”; with AML cell lines (listed as compound 70), “demonstrated cellular differentiation”.
For the molecule `Cc1ccccc1C1C2=C(CC(C)(C)CC2=O)Nc2n[nH]c(C)c21` (centres unmarked) [Compound 17, 3,7,7-trimethyl-4-(o-tolyl)-6,7,8,9-tetrahydro-2H-pyrazolo[3,4-b]quinolin-5(4H)-one], the “ADP Glo Assay GSK3β vs CDK5 fold selectivity” value at CDK5/p25 came out at 14X. Moreover, the IC50 on GSK3α is less than 0.1 µM. Further, the EC50 was greater than 25 µM in data set [1] and greater than 50 µM in data set [2] (Homo sapiens, U2OS).
On to `COc1ccccc1[C@@H]1C2=C(CC(C)(C)CC2=O)Nc2n[nH]c(C)c21` [Compound 22, 4-(2-methoxyphenyl)-3,7,7-trimethyl-6,7,8,9-tetrahydro-1H-pyrazolo[3,4-b]quinolin-5(4H)-one], for which the “effect on amphetamine-induced hyperactivity, ICV injection” value in [6] (intracerebroventricular) was “attenuate amphetamine-induced hyperactivity”. Also, the “number of kinases inhibited greater than 50% at 10 μM” value with panel of 311 kinases is recorded as 8 kinases. In data set [7], the neurogenesis result is reported as “promoted neurogenesis”.
On to `Cc1[nH]nc2c1C(c1cccc3nonc13)C1=C(CC(C)(C)CC1=O)N2` (centres unmarked) [Compound 41, 4-(benzo[c][1,2,5]oxadiazol-4-yl)-3,7,7-trimethyl-6,7,8,9-tetrahydro-2H-pyrazolo[3,4-b]quinolin-5(4H)-one], for which the “ADP Glo Assay GSK3β vs CDK5 fold selectivity” value at CDK5/p25 amounted to 51X. For the same molecule, the IC50 against GSK3α is less than 0.1 µM. Further, the EC50 worked out at 6.7 µM in [1]; 11.8 µM in data set [2] (Homo sapiens, U2OS); 2.27 µM in data set [3].
Take `Cc1[nH]nc2c1C(C)C1=C(CC(C)(C)CC1=O)N2` (centres unmarked) [Compound 42]: at CDK5/p25, the “ADP Glo Assay GSK3β vs CDK5 fold selectivity” value is 23X. Besides, the figures for the EC50 in [2] and in [8] were greater than 50 µM and greater than 25 µM, respectively.
For `COc1ccccc1C1C2=C(CCC(C)(C)C2=O)Nc2n[nH]c(C)c21` (centres unmarked) [Compound 45] the same measures were 20X, greater than 50 µM and greater than 25 µM.
`COc1ccccc1C1C2=C(CCCC2=O)Nc2n[nH]c(C)c21` (centres unmarked) [Compound 46]: the “ADP Glo Assay GSK3β vs CDK5 fold selectivity” value on CDK5/p25 is listed as 6X. Besides, the EC50 is greater than 50 µM in [2] and greater than 25 µM in data set [8].
For `COc1ccccc1C1C2=C(CC(C)(C)CC2=O)Nc2n[nH]cc21` (centres unmarked) [Compound 47], the “ADP Glo Assay GSK3β vs CDK5 fold selectivity” value at CDK5/p25 worked out at 34X.
For `CCc1[nH]nc2c1C(c1ccccc1OC)C1=C(CC(C)(C)CC1=O)N2` (centres unmarked) [Compound 48], at CDK5/p25, the “ADP Glo Assay GSK3β vs CDK5 fold selectivity” value is 35X.
With `COc1ccccc1C1C2=C(CC(C)(C)CC2=O)Nc2n[nH]c(C(C)C)c21` (centres unmarked) [Compound 49], the “ADP Glo Assay GSK3β vs CDK5 fold selectivity” value at CDK5/p25 was 14X. Also, the EC50 is greater than 50 µM in data set [2] and greater than 25 µM in data set [8].
With `CC1(C)CC(=O)C2=C(C1)Nc1n[nH]c(C(F)(F)F)c1[C@@H]2c1c(F)cccc1F` [Compound 59], the IC50 against GSK3α is 0.101 to 1 µM; on GSK3β [9] it was less than 0.1 µM; against GSK3β [10], less than 0.1 µM. The EC50 in data set [8] was greater than 25 µM.
For the molecule `CC1(C)CC(=O)C2=C(C1)Nc1n[nH]c(C(F)(F)F)c1C2c1ccc(F)cc1C(F)(F)F` (centres unmarked) [Compound 65], at CDK5/p25, the “ADP Glo Assay GSK3β vs CDK5 fold selectivity” value came out at 130X. Moreover, the EC50 in data set [8] was greater than 25 µM.
Consider `Cc1[nH]nc2c1C(c1ccccc1)(C(F)(F)F)C1=C(CC(C)(C)CC1=O)N2` (centres unmarked) [Compound 83], for which the “Microsomal stability 60 min” value in data set [11] was found to be 51.5%.
With `[Li+]` [Li^+], the IC50 with GSK3 was 2000 µM.
